# Reference: patent US8299077B2 (Roche Palo Alto LLC, priority 2009, dated 2012)
# Tested on: B cell receptor-mediated activation of B cells in human blood (CD69 expression)
# Assay: Inhibition of B cell activation in whole blood measured by CD69 expression
# Format: cell-based
# Details: anti-IgM stimulation, 20 h, 50% decrease of CD69-positive cells that are also CD20-positive
# Description: Inhibition of B Cell Activation in Whole Blood Measured by CD69 Expression
# A procedure to test the ability of Btk inhibitors to suppress B cell receptor-mediated activation of B cells in human blood is as follows:
# Human whole blood (HWB) is obtained from healthy volunteers, with the following restrictions: 24 hr drug-free, non-smokers. Blood is collected by venipuncture into Vacutainer tubes anticoagulated with sodium heparin. Test compounds are diluted to ten times the desired starting drug concentration in PBS (20×), followed by three-fold serial dilutions in 10% DMSO in PBS to produce a nine point dose-response curve. 5.5 μl of each compound dilution is added in duplicate to a 2 ml 96-well V bottom plate (Analytical Sales and Services, #59623-23); 5.5 μl of 10% DMSO in PBS is added to control and no-stimulus wells. HWB (100 μl) is added to each well, and after mixing the plates are incubated at 37 C, 5% CO2, 100% humidity for 30 minutes. Goat F(ab′)2 anti-human IgM (Southern Biotech, #2022-14) (10 μl of a 500 μg/ml solution, 50 μg/ml final concentration) is added to each well (except the no-stimulus wells) with mixing and the plates are incubated for an additional 20 hours.
# At the end of the 20 hour incubation, samples are incubated with florescent-probe-labeled anti-bodies (15 μl PE Mouse anti-Human CD20, BD Pharmingen, #555623, and/or 20 ul APC Mouse anti-Human CD69, BD Pharmingen #555533) for 30 minutes, at 37 C, 5% CO2, 100% humidity. Included are induced control, unstained and single stains for compensation adjustments and initial voltage settings. Samples are then lysed with 1 ml of 1× Pharmingen Lyse Buffer (BD Pharmingen #555899), and plates are centrifuged at 1800 rpm for 5 minutes. Supernatants are removed via suction and the remaining pellets are lysed again with another 1 ml of 1× Pharmingen Lyse Buffer, and plates are spun down as before. Supernatants are aspirated and remaining pellets are washed in FACs buffer (PBS+1% FBS). After a final spin, the supernantants are removed and pellets are resuspended in 180 μl of FACs buffer. Samples are transferred to a 96 well plate suitable to be run on the HTS 96 well system on the BD LSR II flow cytometer.
# Using appropriate excitation and emission wavelengths for the fluorophores used, data are acquired and percent positive cell values are obtained using Cell Quest Software. Results are initially analyzed by FACS analysis software (Flow Jo). […] The IC50 values are calculated using XLfit software version 3, equation 201.
row,IC50 [nM],Structure (SMILES)
1,11,"CN1CCN(c2ccc(Nc3cc(-c4cccc(-n5ccc6cc(N(C)C)cc(F)c6c5=O)c4CO)cn(C)c3=O)nc2)CC1 [Example I-4, 6-Dimethylamino-8-fluoro-2-(2-hydroxymethyl-3-{1-methyl-5-[5-(4-methyl-piperazin-1-yl)-pyridin-2-ylamino]-6-oxo-1,6-dihydro-pyridin-3-yl}-phenyl)-2H-isoquinolin-1-one]"
2,1080,"CCNC(=O)Nc1cc(-c2cccc(N3CCc4cc(C(C)(C)C#N)cc(F)c4C3=O)c2CO)cn(C)c1=O [Example I-5, 1-(5-{3-[6-(Cyano-dimethyl-methyl)-8-fluoro-1-oxo-3,4-dihydro-1H-isoquinolin-2-yl]-2-hydroxymethyl-phenyl}-1-methyl-2-oxo-1,2-dihydro-pyridin-3-yl)-3-ethyl-urea]"
3,1,"Cn1cc(-c2cccc(-n3ncc4cc(C(C)(C)C)cc(F)c4c3=O)c2CO)cc(Nc2ccc(C(=O)N3CCOCC3)cn2)c1=O [Example I-9, 6-tert-Butyl-8-fluoro-2-(2-hydroxymethyl-3-{1-methyl-5-[5-(morpholine-4-carbonyl)-pyridin-2-ylamino]-6-oxo-1,6-dihydro-pyridin-3-yl}-phenyl)-2H-phthalazin-1-one]"
4,58,"CN1CCN(Cc2ccc(Nc3cc(-c4cccc(N5CCc6cc(C7CC7)cc(F)c6C5=O)c4CO)cn(C)c3=O)nc2)CC1 [Example I-11, 6-Cyclopropyl-8-fluoro-2-(2-hydroxymethyl-3-{1-methyl-5-[5-(4-methyl-piperazin-1-ylmethyl)-pyridin-2-ylamino]-6-oxo-1,6-dihydro-pyridin-3-yl}-phenyl)-3,4-dihydro-2H-isoquinolin-1-one]"
5,43,"CCN1CCN(c2ccc(Nc3cc(-c4cccc(N5CCc6cc(C7CC7)cc(F)c6C5=O)c4CO)cn(C)c3=O)nc2)CC1 [Example I-12, 6-Cyclopropyl-2-(3-{5-[5-(4-ethyl-piperazin-1-yl)-pyridin-2-ylamino]-1-methyl-6-oxo-1,6-dihydro-pyridin-3-yl}-2-hydroxymethyl-phenyl)-8-fluoro-3,4-dihydro-2H-isoquinolin-1-one]"
6,4040,"Cn1cc(-c2cccc(N3CCc4cc(C5CC5)cc(C#N)c4C3=O)c2CO)cc(Nc2ccc(S(C)(=O)=O)cn2)c1=O [Example I-13, 6-Cyclopropyl-2-{2-hydroxymethyl-3-[5-(5-methanesulfonyl-pyridin-2-ylamino)-1-methyl-6-oxo-1,6-dihydro-pyridin-3-yl]-phenyl}-1-oxo-1,2,3,4-tetrahydro-isoquinoline-8-carbonitrile]"
7,30,"Cn1cc(-c2cccc(-n3ncc4cc(C(C)(C)C)cc(F)c4c3=O)c2CO)cc(Nc2ccc(N3CCNCC3)cn2)c1=O [Example I-14, 6-tert-Butyl-8-fluoro-2-{2-hydroxymethyl-3-[1-methyl-6-oxo-5-(5-piperazin-1-yl-pyridin-2-ylamino)-1,6-dihydro-pyridin-3-yl]-phenyl}-2H-phthalazin-1-one]"
8,48,"Cn1cc(-c2cccc(-n3ncc4cc(C(C)(C)C)cc(F)c4c3=O)c2CO)cc(Nc2ccc(C3CCNCC3)cn2)c1=O [Example I-16, 6-tert-Butyl-8-fluoro-2-{3-[5-(1′,2′,3′,4′,5′,6′-hexahydro-[3,4′]bipyridinyl-6-ylamino)-1-methyl-6-oxo-1,6-dihydro-pyridin-3-yl]-2-hydroxymethyl-phenyl}-2H-phthalazin-1-one]"
9,10,"Cn1cc(-c2cccc(-n3ncc4cc(C(C)(C)C)cc(F)c4c3=O)c2CO)cc(Nc2ccc(N3CCC(C)(O)CC3)cn2)c1=O [Example I-17, 6-tert-Butyl-8-fluoro-2-{2-hydroxymethyl-3-[5-(4-hydroxy-4-methyl-3,4,5,6-tetrahydro-2H-[1,3′]bipyridinyl-6′-ylamino)-1-methyl-6-oxo-1,6-dihydro-pyridin-3-yl]-phenyl}-2H-phthalazin-1-one]"
